Reference: the NIST ThermoML archive (doi:10.1016/j.jct.2012.03.025)

Test: mn = molality of the nth substance listed, in mol/kg
Conditions: 101 kPa, Liquid; for speed of sound: Sing-around technique in a fixed-path interferometer; for mass density: Vibrating tube method

CCCCn1cc[n+](C)c1.[Cl-] [1-butyl-3-methylimidazolium chloride] + O
Conditions	mass density, 288.15 K [kg/m3]	mass density, 293.15 K [kg/m3]	mass density, 298.15 K [kg/m3]	mass density, 303.15 K [kg/m3]	mass density, 308.15 K [kg/m3]	speed of sound, 288.15 K [m/s]	speed of sound, 293.15 K [m/s]	speed of sound, 298.15 K [m/s]	speed of sound, 303.15 K [m/s]	speed of sound, 308.15 K [m/s]
m1 = 0.0519	999.802	998.874	997.684	996.264	994.611	1474.6	1489.9	1503.6	1515.5	1525.8
m1 = 0.1011	1000.45	999.477	998.265	996.836	995.146	1482	1496.7	1509.9	1521.4	1531.3
m1 = 0.1548	1001.14	1000.16	998.918	997.452	995.754	1489.8	1504	1516.6	1527.7	1537.2
m1 = 0.2011	1001.77	1000.76	999.494	998.007	996.292	1496.5	1510.1	1522.3	1533	1542.3
m1 = 0.2583	1002.56	1001.52	1000.2	998.699	996.957	1504.3	1517.8	1529.2	1539.7	1548.4
m1 = 0.311	1003.25	1002.18	1000.86	999.317	997.577	1511.4	1524.5	1535.6	1545.6	1553.9
m1 = 0.3619	1003.98	1002.88	1001.53	999.989	998.169	1518.1	1531	1541.4	1551.3	1559.3
m1 = 0.4064	1004.59	1003.46	1002.09	1000.54	998.737	1524	1536.4	1546.8	1556.2	1563.9
m1 = 0.451	1005.23	1004.07	1002.67	1001.08	999.294	1530	1542.1	1551.6	1561	1568.4
m1 = 0.5069	1005.99	1004.8	1003.4	1001.79	999.991	1536.9	1549	1557.9	1567.1	1574

CC(=O)[O-].CCCCn1cc[n+](C)c1 [1-butyl-3-methylimidazolium acetate] + O
Conditions	mass density, 288.15 K [kg/m3]	mass density, 293.15 K [kg/m3]	mass density, 298.15 K [kg/m3]	mass density, 303.15 K [kg/m3]	mass density, 308.15 K [kg/m3]	speed of sound, 288.15 K [m/s]	speed of sound, 293.15 K [m/s]	speed of sound, 298.15 K [m/s]	speed of sound, 303.15 K [m/s]	speed of sound, 308.15 K [m/s]
m1 = 0.0534	999.93	999	997.824	996.406	994.772	1476.3	1492	1505.6	1517.5	1527.3
m1 = 0.104	1000.71	999.755	998.548	997.105	995.451	1485.4	1500.6	1513.6	1525.2	1534.3
m1 = 0.1535	1001.45	1000.47	999.237	997.775	996.101	1494.2	1508.8	1521.3	1532.3	1541
m1 = 0.209	1002.31	1001.29	1000.03	998.535	996.836	1504	1517.9	1529.8	1540	1548.3
m1 = 0.2498	1002.95	1001.91	1000.62	999.11	997.391	1511	1524.4	1535.9	1545.7	1553.8
m1 = 0.2997	1003.66	1002.59	1001.27	999.737	997.998	1519.5	1532	1543	1552.5	1560.3
m1 = 0.35	1004.51	1003.4	1002.05	1000.49	998.725	1528.1	1540	1550	1559	1566.8
m1 = 0.4035	1005.33	1004.19	1002.81	1001.22	999.427	1536.9	1548	1557.6	1566	1573.3
m1 = 0.457	1006.2	1005.02	1003.61	1001.98	1000.17	1545.8	1556	1564.8	1572.9	1579.9
m1 = 0.5036	1006.93	1005.72	1004.28	1002.63	1000.79	1553.4	1562.8	1571	1578.5	1585.6
